The text below walks through data of article PMC9697198, “Carbonic Anhydrase Inhibition Activities of Schiff’s Bases Based on Quinazoline-Linked Benzenesulfonamide” (Molecules, 2022).

As usually defined, the Ki is a measure of affinity in units of concentration, obtained from inhibition or displacement. High values mean a looser hold on the target, low ones a stronger hold on the target. By melting point is commonly meant the temperature, or range, at which the solid turns liquid.

Where “and” joins values, the source holds several entries; their conditions need not be identical. Identical values can stand only once.

One series has as its target hCA I (Homo sapiens, UniProt P00915). Nature of the series: hCA I inhibition, stopped-flow assay. In kind it is biochemical. Conditions: stopped-flow technique; mean from three different assays, errors ±5–10%.
In a further series the target is hCA XII (Homo sapiens, UniProt O43570). Kind of series: hCA XII inhibition, stopped-flow assay. In kind it is biochemical. As to conditions: for Selectivity Analysis hCA I/XII / Selectivity Analysis hCA II/XII: selectivity index (SI); for Selectivity Analysis hCA I/XII: ratio of Ki hCA I to Ki hCA XII; for Selectivity Analysis hCA II/XII: ratio of Ki hCA II to Ki hCA XII; for Ki: stopped-flow technique, mean from three different assays, errors ±5–10%.

The next series deals with hCA II (Homo sapiens, UniProt P00918). Kind of series: hCA II inhibition, stopped-flow assay. In kind it is biochemical. Conditions: stopped-flow technique; mean from three different assays, errors ±5–10%.
Another series addresses hCA IX (Homo sapiens, UniProt Q16790). Nature of the series: hCA IX inhibition, stopped-flow assay. In kind it is biochemical. Conditions: for Selectivity Analysis hCA I/IX / Selectivity Analysis hCA II/IX: selectivity index (SI); for Selectivity Analysis hCA I/IX: ratio of Ki hCA I to Ki hCA IX; for Selectivity Analysis hCA II/IX: ratio of Ki hCA II to Ki hCA IX; for Ki: stopped-flow technique, mean from three different assays, errors ±5–10%.

Chain of hCA XII (O43570 25-354): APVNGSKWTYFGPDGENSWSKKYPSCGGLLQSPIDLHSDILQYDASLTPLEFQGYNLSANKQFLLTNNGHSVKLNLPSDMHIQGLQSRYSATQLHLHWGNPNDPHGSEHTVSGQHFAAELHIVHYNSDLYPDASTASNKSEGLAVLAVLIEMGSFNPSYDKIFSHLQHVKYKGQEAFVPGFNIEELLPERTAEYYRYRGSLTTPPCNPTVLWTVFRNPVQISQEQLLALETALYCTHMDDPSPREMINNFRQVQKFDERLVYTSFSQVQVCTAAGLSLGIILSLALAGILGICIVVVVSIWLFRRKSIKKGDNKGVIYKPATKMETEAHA
Chain of hCA I (P00915 whole entry): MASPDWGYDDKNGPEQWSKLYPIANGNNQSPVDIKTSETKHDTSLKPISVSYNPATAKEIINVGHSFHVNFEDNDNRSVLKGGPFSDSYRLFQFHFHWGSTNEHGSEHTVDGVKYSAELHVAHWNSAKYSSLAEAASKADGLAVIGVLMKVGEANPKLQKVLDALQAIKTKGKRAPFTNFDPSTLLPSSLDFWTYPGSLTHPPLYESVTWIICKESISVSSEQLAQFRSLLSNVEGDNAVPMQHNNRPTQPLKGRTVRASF

In turn, `CN(C)c1ccc(C=NNC(=O)CSc2nc3ccccc3c(=O)n2CCc2ccc(S(N)(=O)=O)cc2)cc1` [Compound 15, 4-(2-(2-((2-(2-(4-(Dimethylamino)benzylidene)hydrazineyl)-2-oxoethyl)thio)-4-oxoquinazolin-3(4H)-yl)ethyl)benzenesulfonamide] returned a melting point of 280 to 281 °C. In addition, on hCA I, the Ki turned out to be 582 nM. At hCA XII, the “Selectivity Analysis hCA I/XII” value is reported as 85.58, the “Selectivity Analysis hCA II/XII” value came to 12.07 and the Ki turned out to be 6.8 nM. In addition, the affinity at hCA II corresponds to a Ki of 82.1 nM. At hCA IX, the “Selectivity Analysis hCA I/IX” value is recorded as 6.56; the “Selectivity Analysis hCA II/IX” value was 0.92; the Ki was 89.1 nM and 88.6 nM.
Turning to `NS(=O)(=O)c1ccc(CCn2c(SCC(=O)NN=Cc3cccnc3)nc3ccccc3c2=O)cc1` [Compound 16, 4-(2-(4-Oxo-2-((2-oxo-2-(2-(pyridin-3-ylmethylene)hydrazineyl)ethyl)thio)quinazolin-3(4H)-yl)ethyl)benzenesulfonamide], the melting point fell in the range of 263 to 264 °C. This compound showed a Ki at hCA I of 208 nM. In addition, at hCA XII, the “Selectivity Analysis hCA I/XII” value is 10.0; the “Selectivity Analysis hCA II/XII” value was found to be 1.14; the affinity, expressed as Ki, was 20.8 nM. The same compound displayed a Ki at hCA II of 23.8 nM. Moreover, on hCA IX, the “Selectivity Analysis hCA I/IX” value amounted to 5.5, the “Selectivity Analysis hCA II/IX” value stood at 0.63 and the Ki turned out to be 37.8 nM.
For `CC(=NNC(=O)CSc1nc2ccccc2c(=O)n1CCc1ccc(S(N)(=O)=O)cc1)c1ccccc1` [Compound 17, 4-(2-(4-Oxo-2-((2-oxo-2-(2-(1-phenylethylidene)hydrazineyl)ethyl)thio)quinazolin-3(4H)-yl)ethyl)benzenesulfonamide], the melting point was in the range of 260 to 261 °C. Further, the Ki on hCA I came to 124 nM. Besides, on hCA XII, the “Selectivity Analysis hCA I/XII” value is 9.78, the “Selectivity Analysis hCA II/XII” value is 5.31 and affinity was put at a Ki of 12.7 nM. This compound gave a Ki at hCA II of 67.5 nM. Moreover, at hCA IX, the “Selectivity Analysis hCA I/IX” value stood at 2.23, the “Selectivity Analysis hCA II/IX” value worked out at 1.21 and the Ki was 55.7 nM.
In turn, `CC(=NNC(=O)CSc1nc2ccccc2c(=O)n1CCc1ccc(S(N)(=O)=O)cc1)c1ccccc1N` [Compound 18, 4-(2-(2-((2-(2-(1-(2-Aminophenyl)ethylidene)hydrazineyl)-2-oxoethyl)thio)-4-oxoquinazolin-3(4H)-yl)ethyl)benzenesulfonamide] returned a melting point of 264 to 265 °C. The same compound returned a Ki on hCA I of 824 nM. At hCA XII, the “Selectivity Analysis hCA I/XII” value stood at 45.04, the “Selectivity Analysis hCA II/XII” value is 1.92 and the inhibition constant (Ki) worked out at 18.3 nM. Besides, the Ki on hCA II worked out at 35.2 nM. At hCA IX, the “Selectivity Analysis hCA I/IX” value was determined as 22.46, the “Selectivity Analysis hCA II/IX” value came to 0.96 and the Ki was 36.7 nM.
In turn, `CC(=NNC(=O)CSc1nc2ccccc2c(=O)n1CCc1ccc(S(N)(=O)=O)cc1)c1ccc(N)cc1` [Compound 19, 4-(2-(2-((2-(2-(1-(4-Aminophenyl)ethylidene)hydrazineyl)-2-oxoethyl)thio)-4-oxoquinazolin-3(4H)-yl)ethyl)benzenesulfonamide] registered a melting point of 308 to 309 °C. In addition, on hCA I, the affinity, expressed as Ki, was 439 nM. For the same compound, at hCA XII, the “Selectivity Analysis hCA I/XII” value stood at 27.64, the “Selectivity Analysis hCA II/XII” value stood at 3.72 and the inhibitory constant (Ki) amounted to 15.9 nM. On hCA II, this compound yielded a Ki of 59.3 nM. Further, at hCA IX, the “Selectivity Analysis hCA I/IX” value came to 75.77, the “Selectivity Analysis hCA II/IX” value was 10.22 and the affinity corresponds to a Ki of 5.8 nM.
Consider `CC(=NNC(=O)CSc1nc2ccccc2c(=O)n1CCc1ccc(S(N)(=O)=O)cc1)c1ccc(Br)cc1` [Compound 20, 4-(2-(2-((2-(2-(1-(4-Bromophenyl)ethylidene)hydrazineyl)-2-oxoethyl)thio)-4-oxoquinazolin-3(4H)-yl)ethyl)benzenesulfonamide], for which the melting point was in the range of 302 to 303 °C. Further, the Ki on hCA I was 1360 nM. Moreover, at hCA XII, the “Selectivity Analysis hCA I/XII” value is on record as 15.27, the “Selectivity Analysis hCA II/XII” value is 7.86 and the inhibitory constant (Ki) amounted to 88.8 nM. The same compound gave a Ki on hCA II of 698 nM. Besides, at hCA IX, the “Selectivity Analysis hCA I/IX” value is recorded as 13.6, the “Selectivity Analysis hCA II/IX” value stood at 7.01 and the Ki worked out at 99.6 nM.
`CC(=NNC(=O)CSc1nc2ccccc2c(=O)n1CCc1ccc(S(N)(=O)=O)cc1)c1ccccc1Cl` [Compound 21, 4-(2-(2-((2-(2-(1-(2-Chlorophenyl)ethylidene)hydrazineyl)-2-oxoethyl)thio)-4-oxoquinazolin-3(4H)-yl)ethyl)benzenesulfonamide] returned a melting point of 273 to 275 °C. Further, the Ki at hCA I amounted to 1140 nM. At hCA XII, the “Selectivity Analysis hCA I/XII” value was 19.74; the “Selectivity Analysis hCA II/XII” value amounted to 5.59; the affinity, expressed as Ki, was 58 nM. In addition, at hCA II, the Ki came out at 324 nM. In addition, on hCA IX, the “Selectivity Analysis hCA I/IX” value was 25.27, the “Selectivity Analysis hCA II/IX” value was found to be 7.15 and the affinity corresponds to a Ki of 45.3 nM.
In turn, `CC(=NNC(=O)CSc1nc2ccccc2c(=O)n1CCc1ccc(S(N)(=O)=O)cc1)c1cccc(Cl)c1` [Compound 22, 4-(2-(2-((2-(2-(1-(3-Chlorophenyl)ethylidene)hydrazineyl)-2-oxoethyl)thio)-4-oxoquinazolin-3(4H)-yl)ethyl)benzenesulfonamide] came in with a melting point of 297 to 298 °C. This compound also returned a Ki at hCA I of 867 nM. At hCA XII, the “Selectivity Analysis hCA I/XII” value worked out at 18.49, the “Selectivity Analysis hCA II/XII” value is reported as 7.23 and affinity was put at a Ki of 46.9 nM. In addition, the Ki at hCA II came to 339 nM. Further, on hCA IX, the “Selectivity Analysis hCA I/IX” value came out at 11.51, the “Selectivity Analysis hCA II/IX” value turned out to be 4.50 and affinity was put at a Ki of 75.3 nM.
In turn, `CC(=NNC(=O)CSc1nc2ccccc2c(=O)n1CCc1ccc(S(N)(=O)=O)cc1)c1ccc(Cl)cc1` [Compound 23, 4-(2-(2-((2-(2-(1-(4-Chlorophenyl)ethylidene)hydrazineyl)-2-oxoethyl)thio)-4-oxoquinazolin-3(4H)-yl)ethyl)benzenesulfonamide] showed a melting point of 278 to 280 °C. Besides, at hCA I, the affinity, expressed as Ki, was 563 nM. Besides, on hCA XII, the “Selectivity Analysis hCA II/XII” value is listed as 2.56 and the affinity, expressed as Ki, was 61.2 nM. The affinity on hCA II, expressed as Ki, was 157 nM. Besides, at hCA IX, the “Selectivity Analysis hCA I/IX” value was 8.67, the “Selectivity Analysis hCA II/IX” value worked out at 2.41 and the Ki is 65 nM.
The compound `CC(=NNC(=O)CSc1nc2ccccc2c(=O)n1CCc1ccc(S(N)(=O)=O)cc1)c1ccc(F)cc1` [Compound 24, 4-(2-(2-((2-(2-(1-(4-Fluorophenyl)ethylidene)hydrazineyl)-2-oxoethyl)thio)-4-oxoquinazolin-3(4H)-yl)ethyl)benzenesulfonamide] yielded a melting point of 299 to 300 °C. In addition, on hCA I, the Ki was determined as 187 nM. On hCA XII, the “Selectivity Analysis hCA I/XII” value is given as 7.35, the “Selectivity Analysis hCA II/XII” value came to 1.55 and the Ki was determined as 25.4 nM. In addition, the affinity at hCA II corresponds to a Ki of 39.5 nM. Moreover, on hCA IX, the “Selectivity Analysis hCA I/IX” value was 6.55; the “Selectivity Analysis hCA II/IX” value came to 1.38; the affinity, expressed as Ki, was 28.5 nM.
With `CC(=NNC(=O)CSc1nc2ccccc2c(=O)n1CCc1ccc(S(N)(=O)=O)cc1)c1ccc(C)cc1` [Compound 25, 4-(2-(4-Oxo-2-((2-oxo-2-(2-(1-(p-tolyl)ethylidene)hydrazineyl)ethyl)thio)quinazolin-3(4H)-yl)ethyl)benzenesulfonamide], the melting point fell in the range of 288 to 290 °C. Moreover, affinity at hCA I was put at a Ki of 627 nM. In addition, on hCA XII, the “Selectivity Analysis hCA I/XII” value is reported as 10.90, the “Selectivity Analysis hCA II/XII” value was 2.19 and the Ki was 57.5 nM. This compound had a Ki on hCA II of 126 nM. In addition, at hCA IX, the “Selectivity Analysis hCA I/IX” value is 14.28, the “Selectivity Analysis hCA II/IX” value amounted to 2.87 and the affinity corresponds to a Ki of 43.9 nM.
`CC(=NNC(=O)CSc1nc2ccccc2c(=O)n1CCc1ccc(S(N)(=O)=O)cc1)c1ccccn1` [Compound 26, 4-(2-(4-Oxo-2-((2-oxo-2-(2-(1-(pyridin-2-yl)ethylidene)hydrazineyl)ethyl)thio)quinazolin-3(4H)-yl)ethyl)benzenesulfonamide] displayed a melting point of 300 to 301 °C. On hCA I, affinity was put at a Ki of 52.8 nM. Also, on hCA XII, the “Selectivity Analysis hCA I/XII” value was 1.85, the “Selectivity Analysis hCA II/XII” value was found to be 0.80 and the Ki stood at 28.5 nM. The compound further showed an inhibitory constant (Ki) on hCA II of 22.8 nM. At hCA IX, the “Selectivity Analysis hCA I/IX” value was found to be 0.77, the “Selectivity Analysis hCA II/IX” value was 0.33 and affinity was put at a Ki of 68.2 nM.
